Source: patent US20060073504A1, “Treatment of pain by inhibition of caspase signaling” (The Regents of the University of California, priority 2004, published 2006)
“Also recorded” adds a separate entry of the source. Structures can show the parent of a compound that is named as a salt. Where two headings read alike, the source gives them in different places. * marks the point of attachment. Cbz = O=C(OCc1ccccc1)*; CH2F = FC*

Tests used:
[1] = test system: mechanical hyperalgesia induced by 2′,3′-dideoxycytidine (ddC); assay: ddC-induced mechanical hyperalgesia, paw-withdrawal threshold (Ugo Basile Analgesymeter); format: in vivo, rat; conditions: inhibitor 5 μg i.d. hind paw, day 5 after ddC 50 mg/kg i.v., read 30 min after inhibitor, p<0.05
Method: (§1) Experiments were performed on 220-260-g male Sprague-Dawley rats (Charles River, Fremont, Calif., USA). Rats were housed in groups of 2 under a 12-h light-dark cycle. Food and water were available ad libitum. Experiments were carried out in accordance with NIH regulations for the care and use of animals in research, and under approval of the Institutional Animal Care and Use Committee of the University of California, San Francisco.
(§2) The nociceptive mechanical flexion reflex was quantified with an Ugo Basile Analgesymeter® (Stoelting, Chicago, Ill.), which applies a linearly increasing mechanical force to the dorsum of the rat's hind paw. Mechanical paw-withdrawal thresholds were determined in control (saline treated) and test agent treated rats. Four readings were taken at 5-min intervals and the mean of the last three readings were used to define the baseline paw-withdrawal threshold (Aley and Levine, 1999; Aley et al., 2001). The time at which the readings were taken was based on the time course of each test agent (described in results).
(§3) Algesic agents employed in this study were: vincristine sulfate (VCR), 2′,3′-dideoxycytidine (ddC), streptozotocin sulfate (STZ), tumor necrosis factor-α (TNFα) prostaglandin E2 (PGE2), epinephrine (Epi) (Sigma, St. Louis, Mo.) and N-Acetyl Sphingosine (C2-Ceramide obtained from Upstate USA, Inc, Lake Placid, N.Y.). Doses of the algesic agents were, VCR (200 μg/kg), ddC (50 mg/kg), STZ (50 mg/kg), PGE2 (100 ng/paw) and Epi (100 ng/paw). A single i.v. injection of VCR (200 μg/kg) produced significant mechanical hyperalgesia (>30 % reduction in paw-withdrawal threshold). This effect reached maximum on day 5 following the drug administration and was persistent for more then 15 days (Joseph, 2003 #5). STZ (50 mg/kg, i.v.×1), induced diabetes in rats, as indicated by with a blood glucose level >300 mg/dL, and a nociceptive threshold reduction (>30%). This effect reached maximum on day 3 following administration of the neuropathy inducing drug and was persistent for over 15 days (Joseph, 2003 #4).
(§4) TNFα, C2-Ceramide, PGE2, Epi, and all the inhibitors (see Table I) were administered intradermally (i.d.) on the dorsal surface of the hind paw in a volume of 2.5-5.0 μl, via a 30-gauge hypodermic needle. In co-injection experiments, agents were separated by very small air pockets, in one syringe, so that they could be administered with a single cutaneous needle penetration. As a control, all inhibitors were studied for independent effects on baseline nociceptive threshold. Inhibitors were either co-injected (with TNFα, C2-Ceramide, PGE2, and Epi) or administered on day five following the administration of VCR, ddC and STZ. Drugs were either dissolved in saline (VCR, ddC, STZ, TNF-α, PGE2, Epi) or in 10% DMSO (C2-Ceramide and inhibitors).
(§5) Group data are presented as % reduction in nociceptive threshold (mean+/±SEM) and comparisons between groups performed using Student's t-test (paired or unpaired, as appropriate). A probability of p<0.05 was considered statistically significant.
FIG. 1 depicts the effect of inhibitors of caspases administered in the hind paw of the rat, on mechanical hyperalgesia induced by the AIDS therapy drug 2′,3′-dideoxycytidine (ddC). The effect of inhibitors of caspase 1 (BACMK), 2 (Z-VDAD-FMK), 3 (Ac-DMQD-CHO), 8 (IETD-CHO), 9 (Z-LEHD-FMK.TFA), the non-selective broad-spectrum caspase inhibitor (NS) Z-VAD-FMK and the negative control for the non-selective broad-spectrum caspase inhibitor Z-FA-FMK [NS (Con)] on the nociceptive paw-withdrawal thresholds of rats were evaluated. Paw-withdrawal thresholds were measured on the 5th day after injection of ddC and 30 min after the administration of inhibitors. N=8/group, *=p<0.05, with respect to mechanical nociceptive threshold prior to injection of the inhibitor.

[2] = test system: mechanical hyperalgesia induced by vincristine (VCR); assay: Vincristine-induced mechanical hyperalgesia, paw-withdrawal threshold; format: in vivo, rat; conditions: inhibitor 5 μg i.d. hind paw, day 5 after VCR 200 μg/kg i.v., read 30 min after inhibitor, p<0.05
Method: as §1, §2, §3, §4, §5
FIG. 2 depicts the effect of inhibitors of caspases, administered in the hind paw of the rat, on mechanical hyperalgesia induced by the cancer chemotherapy drug Vincristine (VCR). The effect of inhibitors of caspase 1, 2, 3, 8, 9, the non-selective broad-spectrum caspase inhibitor (NS) and the negative control for the non-selective broad-spectrum caspase inhibitor [NS (Con)] on the nociceptive paw-withdrawal thresholds were evaluated. Paw-withdrawal thresholds were measured on the 5th day after injection of VCR and 30 min after the administration of the inhibitors. N=8/group, *=p<0.05, with respect to the value prior to injection of the inhibitor.

[3] = test system: mechanical nociceptive threshold; assay: Effect of algesic agents on mechanical nociceptive (paw-withdrawal) threshold; format: in vivo, rat; conditions: for effect on mechanical nociceptive threshold, dose response: intradermal injection, TNFα 1 ng-1 μg, C2-ceramide 1 μg-20 μg; for reduction in nociceptive threshold: 100 ng/paw i.d.
Method: as §1, §2
(§6) Algesic agents employed in this study were: vincristine sulfate (VCR), 2′,3′-dideoxycytidine (ddC), streptozotocin sulfate (STZ), tumor necrosis factor-α (TNFα) prostaglandin E2 (PGE2), epinephrine (Epi) (Sigma, St. Louis, Mo.) and N-Acetyl Sphingosine (C2-Ceramide obtained from Upstate USA, Inc, Lake Placid, N.Y.). Doses of the algesic agents were, VCR (200 μg/kg), ddC (50 mg/kg), STZ (50 mg/kg), PGE2 (100 ng/paw) and Epi (100 ng/paw).
(§7) Inhibitors of caspases and neutral sphingomyelinase are described in Table I, which is repeated for convenience. The doses of TNFα (100 ng) and C2-Ceramide (10 μg) were based on dose response experiments performed as part of this study. VCR, STZ, and ddC were administered intravenously (i.v.) in a volume of 1 ml/kg, followed by 0.5 ml saline. Control rats received equal volume of saline.
as §4
FIG. 3 depicts: A. Dose response (1 ng-1 μg) curve for the effect of TNF-α on mechanical nociceptive threshold, and B. Onset and time course of mechanical hyperalgesia induced by 100 ng of TNF-α. N=6/group.
FIG. 5 depicts the dose response (1-20 μg) curve for the effect of ceramide on the mechanical nociceptive threshold. N=6/group.

[4] = test system: mechanical hyperalgesia induced by TNF-α; assay: TNFα-induced mechanical hyperalgesia, inhibitors co-injected; format: in vivo, rat; conditions: read at 30 min
Method: as §1, §2
as §7, with “of saline. […]” for “of saline.”
FIG. 4 depicts the effect of inhibitors of caspases and sphingomyelinase on mechanical hyperalgesia induced by tumor necrosis factor alpha (TNF-α). The effect of inhibitors of caspase 1, 2, 3, 8, 9, the non-selective broad-spectrum caspase inhibitor (NS), the negative control for the non-selective broad-spectrum caspase inhibitor [NS (Con)], and the neutral sphingomyelinase inhibitor (GW4869) on the nociceptive paw-withdrawal thresholds of rats was evaluated. The inhibitors were co-injected with TNF-α and the paw-withdrawal thresholds measured 30 min after the drug administration. […]

[5] = STZ 50 mg/kg i.v. ×1; cited from earlier work
[6] = test system: mechanical nociceptive threshold; conditions: cited from earlier work
[7] = test system: mechanical hyperalgesia induced by ceramide; assay: C2-ceramide-induced mechanical hyperalgesia, inhibitors co-injected; format: in vivo, rat; conditions: inhibitor 5 μg co-injected i.d. with C2-ceramide 10 μg, read at 1 hr; p<0.05
Method: as §1, §2
Inhibitors of caspases and neutral sphingomyelinase are described in Table I, which is repeated for convenience. […]
FIG. 6 depicts the effect of inhibitors of caspases on mechanical hyperalgesia induced by ceramide. […] The inhibitors were co-injected with ceramide and paw-withdrawal thresholds measured 1 hr after the drug administration. […]

[8] = test system: STZ-induced mechanical hyperalgesia; assay: STZ (diabetes)-induced mechanical hyperalgesia, paw-withdrawal threshold; format: in vivo, rat; conditions: single test dose 5 μg i.d. hind paw, rats treated with STZ 50 mg/kg i.v.
Method: as §1, §2
as §6, with “Doses of the algesic agents were, VCR (200 μg/kg), ddC (50 mg/kg), STZ (50 mg/kg), PGE2 (100 ng/paw) and Epi (100 ng/paw).” left out

[9] = test system: mechanical nociceptive threshold of normal/control rats; assay: Independent effect of inhibitors on baseline mechanical nociceptive threshold in control rats; format: in vivo, rat; conditions: i.d. hind paw, data not shown
Method: as §1, §2
TNFα, C2-Ceramide, PGE2, Epi, and all the inhibitors (see Table I) were administered intradermally (i.d.) on the dorsal surface of the hind paw in a volume of 2.5-5.0 μl, via a 30-gauge hypodermic needle. […]

[10] = test system: prostaglandin E2 (PGE2)-induced hyperalgesia; assay: PGE2-induced mechanical hyperalgesia, inhibitor co-injected; format: in vivo, rat; conditions: co-injected with PGE2 100 ng/paw, read at 30 min
Method: as §1
as §2, with “results). […]” for “results).”
(§8) FIG. 7 depicts the effect of the non-selective caspase inhibitor on prostaglandin E2 (PGE2), epinephrine (Epi)-induced hyperalgesia. The caspase inhibitor was co-injected with PGE2 and epinephrine and the paw-withdrawal thresholds measured 30 min after the drug administration. […]

[11] = test system: epinephrine (Epi)-induced hyperalgesia; assay: Epinephrine-induced mechanical hyperalgesia, inhibitor co-injected; format: in vivo, rat; conditions: co-injected with Epi 100 ng/paw, read at 30 min
Method: as §1
as §2, with “results). […]” for “results).”
as §8

[12] = single i.v. injection: VCR 200 μg/kg, STZ 50 mg/kg
[13] = listed as inhibitor of caspase 3
[14] = inhibitor 5 μg co-injected i.d. with TNFα 100 ng, p<0.05

CC(C)(C)OC(=O)N[C@@H](CC(=O)OCc1ccccc1)C(=O)CCl [BACMK, Boc-Asp(Obzl)-CMK]
effect on ddC-induced mechanical hyperalgesia [1]: significantly attenuated hyperalgesia
effect on vincristine-induced mechanical hyperalgesia [2]: significantly attenuated hyperalgesia

CCCCCCCCCCCCC/C=C/[C@@H](O)[C@H](CO)NC(C)=O [C2-ceramide, N-Acetyl Sphingosine]
effect on mechanical nociceptive threshold, dose response [3]: dose-dependent hyperalgesia

CNC[C@H](O)c1ccc(O)c(O)c1 [Epi, epinephrine]
reduction in nociceptive threshold [3]: significant reduction in nociceptive threshold

O=C(/C=C/c1ccc(/C=C/C(=O)Nc2ccc(C3=NCCN3)cc2)cc1)Nc1ccc(C2=NCCN2)cc1 [GW4869]
effect on TNFα-induced hyperalgesia ([4]; sphingomyelinase inhibitor 1 μg co-injected i.d. with TNFα 100 ng): markedly attenuated

CCCCC[C@H](O)/C=C/[C@H]1[C@H](O)CC(=O)[C@@H]1C/C=C\CCCC(=O)O [PGE2, prostaglandin E2]
reduction in nociceptive threshold [3]: significant reduction in nociceptive threshold

CN(N=O)C(=O)N[C@@H]1[C@@H](O)[C@H](O)[C@@H](CO)O[C@@H]1O [STZ, streptozotocin sulfate]
blood glucose level [5]: > 300 mg/dL
day of maximum hyperalgesic effect after drug administration [6, 12]: 3 days

CC[C@]1(O)C[C@H]2CN(CCc3c([nH]c4ccccc34)[C@@](C(=O)OC)(c3cc4c(cc3OC)N(C=O)[C@H]3[C@@](O)(C(=O)OC)[C@H](OC(C)=O)[C@]5(CC)C=CCN6CC[C@]43[C@@H]65)C2)C1 [VCR, vincristine sulfate]
day of maximum hyperalgesic effect after drug administration [6, 12]: 5 days

Nc1ccn([C@H]2CC[C@@H](CO)O2)c(=O)n1 [ddC, 2′,3′-dideoxycytidine]
reduction in nociceptive threshold ([6]; single dose ddC 50 mg/kg i.v., from day 1): significant reduction in nociceptive threshold
persistence of hyperalgesia ([6]; single i.v. injection: VCR 200 μg/kg, STZ 50 mg/kg, ddC 50 mg/kg): over 20 days

Ac-Asp-Met-Gin-Asp-CHO [Ac-DMQD-CHO]
effect on ddC-induced mechanical hyperalgesia [1, 13]: significantly reversed mechanical hyperalgesia; also recorded: markedly attenuating ddC hyperalgesia
effect on vincristine-induced mechanical hyperalgesia [2, 13]: significantly reversed mechanical hyperalgesia; also recorded: only moderately attenuated

Cbz-VD(OMe)VAD(OMe)-CH2F [Z-VDAD-FMK]
effect on ddC-induced mechanical hyperalgesia [1]: significantly attenuated hyperalgesia
effect on vincristine-induced mechanical hyperalgesia [2]: significantly attenuated hyperalgesia

IETD-CHO
effect on ddC-induced mechanical hyperalgesia [1]: significantly attenuated hyperalgesia
effect on vincristine-induced mechanical hyperalgesia [2]: significantly attenuated hyperalgesia

TNFα
latency to onset of hyperalgesia ([3]; TNFα 100 ng i.d.): approximately 5 minutes
time course of hyperalgesia ([3]; TNFα 100 ng i.d., at 3 hours): not attenuated at 3 hours
effect on mechanical nociceptive threshold, dose response [3]: dose-dependent (1 ng-1 μg) decrease in mechanical nociceptive threshold

Z-Leu-Glu(OMe)-His-Asp-(OMe)FMK [Z-LEHD-FMK.TFA]
effect on ddC-induced mechanical hyperalgesia [1]: significantly attenuated hyperalgesia
effect on vincristine-induced mechanical hyperalgesia [2]: significantly attenuated hyperalgesia

Z-Phe-Ala-CH2F [Z-FA-FMK]
effect on TNFα-induced hyperalgesia [4, 14]: not
effect on C2-ceramide-induced hyperalgesia [7]: not

Z-Val-Ala-Asp(OMe)-Fluoro methyl ester [Z-VAD-FMK]
effect on ddC-induced mechanical hyperalgesia [1]: markedly attenuated; also recorded: markedly attenuating pain-related behavior
effect on TNFα-induced hyperalgesia [4, 14]: markedly attenuated
effect on STZ-induced mechanical hyperalgesia [8]: did not produce significant attenuation of hyperalgesia; also recorded: having no effect
effect on vincristine-induced mechanical hyperalgesia [2]: markedly attenuated; also recorded: moderately attenuating pain
effect of inhibitor alone on mechanical nociceptive threshold [9]: had no effect on mechanical nociceptive threshold
effect on C2-ceramide-induced hyperalgesia [7]: significantly less hyperalgesia
effect on PGE2-induced hyperalgesia [10]: had no effect on the hyperalgesia
effect on Epi-induced hyperalgesia [11]: had no effect on the hyperalgesia
